We go through 8 compounds from patent publication US10017535B2, “Amphiphilic compounds with neuroprotective properties” (USTAV ORGANICKE CHEMIE A BIOCHEMIE AV CR, v.v.i., priority 2014, dated 2018).

The subject of data set [1] is NMDA lesion of the dorsal hippocampus in rats. In words: Active allothetic place avoidance (AAPA) after bilateral excitotoxic NMDA lesion of dorsal hippocampus. The class given is in vivo, rat Long-Evans strain. The note with it: for maximum time avoiding the sector, fourth session of AAPA / number of entries into the forbidden sector, fourth session of AAPA: 1 mg/kg after surgery, vs NMDA group. The method, then: In the Experimental Part 2 were used adult (3 months old, 300-400 g) male rat Long-Evans strain. The animals come from herds Institute of Physiology ASCR. The rats were housed in clear plastic boxes with the same light cycle as in mice. Animals had free access to food and water. All experiments were carried out in the light of clay. All experiments were carried out in accordance with the Law on protection of animals against cruelty.
The anesthetized rats were used in operations isoflurane (3.5%, Baxter). To recall excitotoxic lesion of the dorsal hippocampus was applied 0.05 mol·l^−1 solution of NMDA (Sigma-Aldrich) in 0.4 mol·l^−1 phosphate buffer solution prepared by mixing 356 g Na2HPO4.12H2O (Mw358.14) in 4.2 l of distilled water and a solution of 62.4 g NaHPO4. 2H2O (Mw156.01) in 0.8 l of distilled water. The pH of the resulting solution of NMDA was adjusted to 7.4 with NaOH.
In this experiment, the neuroprotective effects were evaluated for amphiphilic steroid compounds. The procedure was performed according to Neuropharmacology 61, 61-68 (2011)
The rats were randomly divided into eleven groups. The control group included operated animals, which were injected by phosphate buffer […] into the hippocampus. In the second group, the animals had NMDA lesions of the hippocampus. The animals of the third group were applied clinically used NMDA antagonist memantine at a dose of 5 mg/kg after NMDA lesion. The other groups were administered the compounds at a dose of 1 mg/kg.
The test was performed in rotating arena with prohibited sector in the form of a circular sector (60°). If the rat entered the sector, its limbs received weak electrical impulse.
Test memory and spatial cognition in rats using AAPA was evaluated over four sessions, which are in healthy rats sufficient to achieve asymptotic level (Behay. Brain. Res. 189, 139-144 (2008)). To evaluate memory and spatial cognition was used data from the fourth session, and the number of entries into the forbidden sector and the maximum avoidance sector. […] After the experiment, the localization of the lesion was histologically verified.
Data were analyzed using the non parametric test of Maim Whitney criteria using the GraphPad. The difference was considered significant for p<0.05, for a non-significant tendency then for 0.05<p<0.075.

The subject of data set [2] is laboratory mice, strain CD-1. It counts as in vivo. The note with it: intraperitoneally, 1 mg/kg. On the procedure: (§1) In the Experimental Part 1 were used adults (30-35 g) male laboratory mice, strain CD-1 from Velaz facility, Czech Republic. Mice were housed in plastic boxes with a 12-hour light cycle (lights on at 7:00 pm). Mice had free access to food and water.
Thus there were prepared solutions of the four steroids for application rates of 0.1, 1, 10 and 100 mg/kg.
Laboratory mouse was chosen as a model organism for this experiment. The following experiments were performed as described in Front Behay. Neurosci.
The purpose of the primary behavioral testing was quickly determined the effect of compounds on CNS dependent functions and any signs of toxicity. A simplified modification Irwin test was selected with respect to the behavioral profile of NMDA receptor antagonists. Mice were tested individually. The study drug was administered intraperitoneally (Table 3) at a dose of 1 mg/kg. The control group consisted of individuals that received the CDX solution or saline.

The test system of data set [3] is laboratory mice, strain CD-1. In words: Open field test (locomotor activity, sedative effect). On Open Field Test No Evidence of Hyperlocomotion: key: −: the desired effect was not observed; −/+: the desired effect was insufficient; +: the desired effect was observed. On Sedative Effect The Rapid Onset of Sedation at a Dose of 100 mg/kg: key: −: the desired effect was not observed; −/+: the desired effect was insufficient; +: the desired effect was observed. It counts as in vivo. The note with it: for pathway in open field: dose 10 and 100 mg/kg, vs intact mice; for locomotor activity over time: higher dose of 10 resp. 100 mg/kg; for Open Field Test No Evidence of Hyperlocomotion / Sedative Effect The Rapid Onset of Sedation at a Dose of 100 mg/kg: intraperitoneally; for Open Field Test No Evidence of Hyperlocomotion: 0.1-100 mg/kg; for hyperlocomotion in open field: lower doses (below 10 mg/kg). The method, then:
as §1
Amphiphilic steroid compounds were dissolved in a solution of 3 g (2-hydroxypropyl)-β-cyclodextrin (CDX, Sigma-Aldrich) and 157 mg of citric acid ([…], Sigma-Aldrich) in 30 ml of distilled water, the pH was adjusted to 7.4 using sodium hydroxide (NaOH, Sigma-Aldrich). Thus there were prepared solutions of the four steroids for application rates of 0.1, 1, 10 and 100 mg/kg.
The efficacy of the studied compounds was compared to known NMDA antagonist is memantine (Sigma-Aldrich) at a dose of 5 mg/kg in rats, ketamine (Vétoquinol) at 10 mg/kg and dizocilpine (MK-801) (Sigma-Aldrich) at a dose of 0.3 mg/kg in mice. These three compounds were dissolved in saline (B Braun).
The substances at dose 0.1-100 mg/kg were administered before the test to mice intraperitoneally. As controls were used intact mice and mice that received CDX solution. Also, MK-801 (0.3 mg/kg) was used for comparison of effects of noncompetitive antagonist of NMDA receptors. From the experiment was evaluated overall track anywhere in the arena as an indicator of locomotor activity. In addition, it was judged a ten-minute segments track during each experiment. Based on these values, it was possible to determine the latency time of onset of action and changes in locomotor activity over time.
In this arrangement, the sedative effect of the studied compounds at the highest dose was evaluated. […] Over time was monitored locomotor activity and possible changes characterized by tremor, ataxia, restlessness, or sedation or general anesthesia (absence of response to stimuli, decreased muscle tone).

For data set [4], the system named is laboratory mice, strain CD-1. Briefly: Passive avoidance test (aversive motivated memory). On Passive Avoidance Test No Memory Violation: key: −: the desired effect was not observed; −/+: the desired effect was insufficient; +: the desired effect was observed. It counts as in vivo. On the procedure: as §1
Aversive motivated memory test was evaluated on the basis of latency input into the preferred, but unpleasant sensation associated with delivery device.

Data set [5] has as its target T1, NR1-1a/NR2B NMDA receptor (Rattus norvegicus, UniProt P35439+Q00960).
T1 construct: expressed in transfected cells; host or cells: HEK293 cells (ATCC CRL1573)
Briefly: Patch-clamp inhibition of glutamate-evoked currents at recombinant NMDA receptors in transfected HEK293 cells. To be noted: for IC50: calculated from relative steroid-induced inhibition, Hill's coefficient 1.2, read-out: IC50. It counts as cell-based. The essentials: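 HEK293 cells co-transfected with rat NR1-1a/NR2B plus GFP were whole-cell patch-clamped 16-40 h post-transfection at −60 mV. Currents were evoked by 1 mmol·l^−1 glutamate with 10 μmol·l^−1 glycine in ECS pH 7.3, and steroid was co-applied in DMSO via fast perfusion. IC50 came from relative inhibition.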

The subject of data set [6] is laboratory mice, strain CD-1. Briefly: Forced swimming test (antidepressant effect). The class given is in vivo. The method, then: as §1
This assay was used to monitor the antidepressant effect. Animals float 6 minutes in acrylic cylinder in water at 24° C. A period of immobility is evaluated. The reduction is a manifestation of anti-depressant properties of drugs.

[7] abbreviates: memantine 5 mg/kg after NMDA lesion.
The mark [8] stands for this setting: HEK293, read-out: Mean % change ± SD.
Wherever Behavioural Test No Evidence of Toxicity is given: key: −: the desired effect was not observed; −/+: the desired effect was insufficient; +: the desired effect was observed.

T1 sequence (Q00960 27-1482, other chains not shown): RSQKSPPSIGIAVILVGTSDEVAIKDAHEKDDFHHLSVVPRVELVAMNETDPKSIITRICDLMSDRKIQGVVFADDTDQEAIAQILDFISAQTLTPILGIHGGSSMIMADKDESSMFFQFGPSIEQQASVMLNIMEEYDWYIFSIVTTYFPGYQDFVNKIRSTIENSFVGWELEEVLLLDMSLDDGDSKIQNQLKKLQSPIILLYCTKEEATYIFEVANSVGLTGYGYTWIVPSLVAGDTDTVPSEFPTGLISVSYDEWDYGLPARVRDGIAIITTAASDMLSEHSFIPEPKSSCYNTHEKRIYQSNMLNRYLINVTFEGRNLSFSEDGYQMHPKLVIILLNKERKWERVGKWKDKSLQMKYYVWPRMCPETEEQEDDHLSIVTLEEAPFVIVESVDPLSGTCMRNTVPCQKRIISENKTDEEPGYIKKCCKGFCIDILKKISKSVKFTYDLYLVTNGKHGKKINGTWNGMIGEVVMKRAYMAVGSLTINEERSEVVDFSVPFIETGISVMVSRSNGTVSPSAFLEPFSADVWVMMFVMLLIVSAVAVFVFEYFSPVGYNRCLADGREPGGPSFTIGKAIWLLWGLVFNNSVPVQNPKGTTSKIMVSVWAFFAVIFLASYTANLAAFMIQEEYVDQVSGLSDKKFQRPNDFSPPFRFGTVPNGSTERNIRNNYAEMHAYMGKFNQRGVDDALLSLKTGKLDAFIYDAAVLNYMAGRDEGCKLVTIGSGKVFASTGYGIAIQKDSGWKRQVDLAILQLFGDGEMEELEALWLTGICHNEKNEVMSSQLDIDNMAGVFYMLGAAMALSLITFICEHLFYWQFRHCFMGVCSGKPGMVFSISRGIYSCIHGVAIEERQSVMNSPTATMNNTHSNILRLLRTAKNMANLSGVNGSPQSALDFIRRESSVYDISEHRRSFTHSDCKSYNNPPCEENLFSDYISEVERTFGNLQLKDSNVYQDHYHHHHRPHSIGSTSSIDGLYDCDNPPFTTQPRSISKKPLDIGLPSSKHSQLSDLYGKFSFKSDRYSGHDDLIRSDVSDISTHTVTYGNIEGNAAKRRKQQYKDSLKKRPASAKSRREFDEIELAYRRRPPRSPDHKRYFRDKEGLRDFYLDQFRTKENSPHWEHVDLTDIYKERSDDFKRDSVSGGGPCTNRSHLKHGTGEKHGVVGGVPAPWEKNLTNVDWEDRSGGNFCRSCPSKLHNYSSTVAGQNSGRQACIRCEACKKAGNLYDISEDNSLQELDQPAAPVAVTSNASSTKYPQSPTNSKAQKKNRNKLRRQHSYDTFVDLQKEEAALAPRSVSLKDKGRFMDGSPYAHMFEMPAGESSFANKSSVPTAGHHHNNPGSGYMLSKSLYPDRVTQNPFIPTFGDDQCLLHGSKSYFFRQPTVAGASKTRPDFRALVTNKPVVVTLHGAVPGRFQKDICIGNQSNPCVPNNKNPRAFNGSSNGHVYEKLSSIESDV

As to `CC12CC3CC(C)(C1)CC(N)(C3)C2` [memantine, reference compound], in data set [1] (setting [7]), the “maximum time avoidance, AAPA” value was “tendency to increase” and the “number of entries into the forbidden sector, AAPA” value is reported as “reduced number of entries”.

As to `C/C=C1/CC[C@H]2[C@@H]3CC[C@@H]4C[C@H](OC(=O)CCC(=O)O)CC[C@]4(C)[C@H]3CC[C@]12C` [Compound 84, 4-(((3R,5R,8R,9S,10S,13S,14S,Z)-17-Ethylidene-10,13-dimethylhexadecahydro-1H-cyclopenta[a]phenanthren-3-yl)oxy)-4-oxobutanoic acid], the “Behavioural Test No Evidence of Toxicity” value in data set [2] is “+”. For the same compound, in data set [3], the “pathway in open field” value is given as “significant reduction”, the “locomotor activity over time” value is “significant decrease”, the “Open Field Test No Evidence of Hyperlocomotion” value (from here on “Open Field Test No Evidence”) is “+” and the “Sedative Effect The Rapid Onset of Sedation at a Dose of 100 mg/kg” value (from here on “Sedative Effect The Rapid Onset”) is recorded as “+”. In addition, in data set [3], the “hyperlocomotion in open field” value is “not (unlike groups with dizocilpine) observed hyperlocomotion”. Also, the “Passive Avoidance Test No Memory Violation” value in data set [4] is listed as “−/+”. The “memory impairment in the passive avoidance test” value in data set [4] (1 mg/kg) is recorded as “Mild memory impairment”. In data set [1], the “maximum time avoiding the sector, fourth session of AAPA” value (from here on “maximum time avoiding the sector”) was “tendency to increase” and the “number of entries into the forbidden sector, fourth session of AAPA” value (“number … of AAPA” below) is listed as “reduced number of entries”.

As for `C=C1CC[C@H]2[C@@H]3CC[C@@H]4C[C@H](OC(=O)CC(=O)O)CC[C@]4(C)[C@H]3CC[C@]12C` [Compound 67, 3-(((3R,5R,8R,9S,10S,13S,14S)-10,13-Dimethyl-17-methylenehexadecahydro-1H-cyclo-penta[a]phenanthren-3-yl)oxy)-3-oxopropanoic acid], in data set [5] (setting [8]), the inhibition at 20 µM was 53 ± 10.2%. In addition, the IC50 in data set [5] was 18.9 µM. The “Behavioural Test No Evidence of Toxicity” value in data set [2] is listed as “+”. In data set [3], the “pathway in open field” value was “significant reduction”, the “locomotor activity over time” value is reported as “significant decrease”, the “Open Field Test No Evidence” value was “+” and the “Sedative Effect The Rapid Onset” value was “+”. Moreover, the “hyperlocomotion in open field” value in data set [3] is “not (unlike groups with dizocilpine) observed hyperlocomotion”. For the same compound, in data set [1], the “maximum time avoiding the sector” value was “significantly increased” and the “number … of AAPA” value is recorded as “significant reduction”.

Turning to `C[C@H]1CC[C@H]2[C@@H]3CC[C@@H]4C[C@H](OC(=O)[C@@H](N)CCC(=O)O)CC[C@]4(C)[C@H]3CC[C@]12C` [Compound 81, (4S)-4-Amino-5-oxo-5-(((3R,5R,8S,9S,10S,13R,14S,17S)-10,13,17-trimethylhexadecahydro-1H-cyclopenta[a]phenanthren-3-yl)oxy)pentanoic acid], the “Behavioural Test No Evidence of Toxicity” value in data set [2] is “+”. Besides, in data set [3], the “pathway in open field” value is “significant reduction”, the “locomotor activity over time” value is on record as “significant decrease”, the “Open Field Test No Evidence” value is “+” and the “Sedative Effect The Rapid Onset” value is recorded as “+”. For the same compound, the “hyperlocomotion in open field” value in data set [3] is on record as “not (unlike groups with dizocilpine) observed hyperlocomotion”. Further, in data set [6], the “Forced Swimming Test Reduced Floating” value is on record as “−”. Besides, the “Passive Avoidance Test No Memory Violation” value in data set [4] is listed as “+”. Moreover, in data set [1], the “maximum time avoiding the sector” value is given as “tendency to increase” and the “number … of AAPA” value is “reduced number of entries”.

On to `C=C1CC[C@H]2[C@@H]3CC[C@@H]4C[C@H](OC(=O)CCCC(=O)O)CC[C@]4(C)[C@H]3CC[C@]12C` [Compound 69, 5-(((3R,5R,8R,9S,10S,13S,14S)-10,13-Dimethyl-17-methylenhexadecahydro-1H-cyclopenta[a]phenanthren-3-yl)oxy)-5-oxopentanoic acid], for which, in data set [5] (setting [8]), the inhibition at 20 µM amounted to 62.9 ± 5.1%. Further, in data set [2], the “Behavioural Test No Evidence of Toxicity” value was “+”. For the same compound, in data set [3], the “pathway in open field” value is on record as “significant reduction”, the “locomotor activity over time” value is given as “significant decrease”, the “Open Field Test No Evidence” value is “+” and the “Sedative Effect The Rapid Onset” value is given as “+”. Also, the “hyperlocomotion in open field” value in data set [3] is on record as “not (unlike groups with dizocilpine) observed hyperlocomotion”. Moreover, the “NMDA lession Improvement in Cognition in AAPA after NMDA Lession” value in data set [1] (1 mg/kg after NMDA lesion) is recorded as “−/+”.

Turning to `CNC1(c2ccccc2Cl)CCCCC1=O` (stereo not shown) [ketamine, reference compound], the “antidepressant effect (decrease of flotation)” value in data set [6] (reference substance ketamine (10 mg/kg)) was “showed antidepressant effect”.

For `C=C1CC[C@H]2[C@@H]3CC[C@@H]4C[C@H](OC(=O)CCC(=O)O)CC[C@]4(C)[C@H]3CC[C@]12C` [Compound 68, 4-(((3R,5R,8R,9S,10S,13S,14S)-10,13-Dimethyl-17-methylenhexadecahydro-1H-cyclopenta[a]phenanthren-3-yl)oxy)-4-oxobutanoic acid], in data set [5] (setting [8]), the inhibition at 5 µM was determined as 24.2 ± 14.3%. Besides, the IC50 in data set [5] is 18.8 µM. Besides, the “Behavioural Test No Evidence of Toxicity” value in data set [2] is “+”. Besides, in data set [3], the “pathway in open field” value is on record as “significant reduction”, the “locomotor activity over time” value was “significant decrease”, the “Open Field Test No Evidence” value is listed as “+” and the “Sedative Effect The Rapid Onset” value was “+”. The “hyperlocomotion in open field” value in data set [3] is recorded as “not (unlike groups with dizocilpine) observed hyperlocomotion”. Besides, the “Passive Avoidance Test No Memory Violation” value in data set [4] is “+”. Also, in data set [1], the “maximum time avoiding the sector” value was “tendency to increase” and the “number … of AAPA” value was “reduced number of entries”.

On to `C[C@@]12CCC[C@H]1[C@@H]1CC[C@@H]3C[C@H](NC(=O)C(=O)O)CC[C@]3(C)[C@H]1CC2` [Compound 59, 2-(((3R,5R,8S,9S,10S,13S,14S)-10,13-Dimethylhexadecahydro-1H-cyclopenta[a]phenanthren-3-yl)amino)-2-oxoacetic acid], for which the melting point was in the range of 191 to 193 °C. Moreover, the inhibition at 10 µM in data set [5] (setting [8]) stood at 32 ± 5%. In addition, the IC50 in data set [5] is 23.2 µM.

What is called IC50 is the concentration that inhibits the measured activity by half. By melting point is commonly meant the temperature, or range, at which the solid turns liquid.
